Laboratory results reported in patent publication US20230125482A1, “PROTEIN KINASE C MODULATORS” (Young Therapeutics, LLC, priority 2020, published 2023).
Where a SMILES comes first, the peptide text is derived from it. Where no end group is shown, it is not given here. The star is where a group is joined. Myristoyl = CCCCCCCCCCCCCC(=O)*

Columns and labels:
Solubility of peptide = format: physicochemical
isolated rat hearts = assay: Myocardial ischemia/reperfusion (I/R) injury in isolated rat hearts (Langendorff, ex vivo); conditions: for Final Coronary Flow / Final Heart Rate / Final LVDP / Final LVEDP / Final LVESP / Final dP/dtmax / Final dP/dtmin: 50 min post-reperfusion; for Initial Coronary Flow / Initial Heart Rate / Initial LVDP / Initial LVEDP / Initial LVESP / Initial dP/dtmax / Initial dP/dtmin: baseline before ischemia
Method: Rat hearts were isolated from anesthetized male Sprague Dawley rats (275-325 g), placed in ice-cold Krebs' buffer, and placed onto a Langendorff heart apparatus and retro perfused with Krebs' buffer at a constant pressure of 80 mmHg (FIG. 1). A pressure transducer measures heart rate, left ventricular end-systolic pressure, end-diastolic pressure, dP/dt max, and dP/dt min. Coronary flow is measured via a flow probe connected to the perfusion tubing. Cardiac function was recorded throughout the experimental protocol using a pressure transducer inserted into the left ventricle (15 min baseline; global I(30 min)/R(50 min)). Selected peptides of TABLE 1 or vehicle (control [0.05 to 0.2% Dimethylsulfoxide) were given during the first 5 min of reperfusion. All peptide inhibitors or activators were dissolved in 28% DMSO and the final concentration of DMSO with peptides or without peptides (control I/R hearts) delivered to all hearts was 0.06%. Statistical analysis was performed using ANOVA and Bonferroni-Dunn post-hoc test.
At the end of the experimental protocol, hearts were removed from the Langendorff apparatus, and frozen for 30 min at −20° C. Hearts were sectioned (2 mm) from base to apex and placed in 1% TTC for ˜10 min at 37° C. Viable tissue stained red and infarcted tissue was unstained (pale). Total tissue sections were weighed and infarcted tissue was separated from viable tissue and weighed to determine infarct size (i.e. infarct tissue weight/total tissue weight).

[1] = tested on: rat polymorphonuclear leukocytes (PMNs); assay: PMA-stimulated superoxide release in rat polymorphonuclear leukocytes (ferricytochrome c reduction, 550 nm); format: cell-based; conditions: for reduction of PMA (100 nM) induced leukocyte superoxide release: vs untreated PMA controls
Method: Change in absorbance at 550 nm via ferricytochrome c reduction by superoxide after stimulation with 100 nM phorbol 12-myristate 13-acetate (PMA) from time 0 to 390 sec was monitored in rat polymorphonuclear leukocytes (PMNs) (5×10^6) incubated for 15 min at 37° C. in the presence/absence of unconjugated PKCβII activator (PKCβII+) (SVEIWD (SEQ ID NO: 23)) or inhibitor (PKCβII−) (SLNPEWNET(SEQ ID NO: 5)), Myr−PKCβII+/−, Myr−PKCβII− scram (Myr-WNPESLNTE (Myristoylated SEQ ID NO: 17), Myr−TAT−PKC|II− (Myristoylated SEQ ID NO: 15) (all 20 μM) or superoxide dismutase (SOD; 10 μg/mL) (FIG. 7). Stock concentrations of compounds were dissolved in DMSO to yield a final concentration not greater that 0.2%. #: p<0.05 vs PMA, Native PKC βII+, Myr−PKC βII+ and Myr−TAT−PKC βII−; **: p<0.01 vs. all groups except Myr−TAT−PKC βII− or SOD; ++: p<0.01 vs. all groups. ANOVA post-hoc analysis was conducted using Bonferroni-Dunn.
The time course of changes in absorbance are summarized in FIGS. 8 (concentration response of Myr+TAT PKCβII−) and 9 (comparison of Myr+TAT+PKCβII− and Myr−PKCβII−, Myr−PKCβII− scrambled, and PKCβII− analogues and PMA controls). The peak response was reached by 300 seconds and maintained a plateau to 390 seconds, Myr+TAT+PKCβII− (20 μM; n=5) reduced phorbol 12-myristate 13-acetate (PMA, 100 nM) induced leukocyte superoxide release by 80%—a degree that was greater than all other study groups (p<0.01). In contrast, the Myr+PKCβII− (20 μM; n=27) reduced leukocyte superoxide release by only 30% (20 μM; n=27), again supporting the concept that the dual Myr−TAT conjugation produced greater results and reduced leukocyte superoxide release by ˜80% and ˜65% as compared to untreated PMA controls (n=74) and Myr+PKCβII− (20 μM; n=27), respectively.

[2] = 10 μM, I(30 min)/R(50 min), infarct tissue weight/total tissue weight
[3] = ex vivo rat I/R hearts, FIG. 4, concentration not given

CCCCCCCCCCCCCC(=O)N[C@@H](CCC(=O)O)C(=O)N[C@@H](C)C(=O)N[C@H](C(=O)N[C@@H](CO)C(=O)N[C@@H](CC(C)C)C(=O)N[C@@H](CCCCN)C(=O)N1CCC[C@H]1C(=O)N[C@H](C(=O)O)[C@@H](C)O)C(C)C [Myr + PKCε-, Myr-EAVSLKPT] (Myristoyl-EAVSLKPT-OH; C-terminus assumed)
solubility (Solubility of peptide): ≤ 10 mM | concentration for similar restoration of post-reperfused cardiac function relative to Myr+TAT+PKCε− (isolated rat hearts): 100 × | reduction of infarct size compared to control I/R hearts (isolated rat hearts; 10 μM): did not reduce infarct size | restoration of post-reperfused cardiac function (isolated rat hearts; 10 μM): ineffective | Final Coronary Flow (isolated rat hearts; 10 μM): 10 ± 1 mL/min | Final Heart Rate (isolated rat hearts; 10 μM): 233 ± 10 BPM | Final LVDP (isolated rat hearts; 10 μM): 46 ± 8 mmHg | Final LVEDP (isolated rat hearts; 10 μM): 58 ± 3 mmHg | Final LVESP (isolated rat hearts; 10 μM): 104 ± 6 mmHg | Final dP/dtmax (isolated rat hearts; 10 μM): 723 ± 84 mmHg/s | Final dP/dtmin (isolated rat hearts; 10 μM): −694 ± 167 mmHg/s | Infarct Size (isolated rat hearts; [2]): 15 ± 4% | Initial Coronary Flow (isolated rat hearts; 10 μM): 17 ± 2 mL/min | Initial Heart Rate (isolated rat hearts; 10 μM): 258 ± 8 BPM | Initial LVDP (isolated rat hearts; 10 μM): 90 ± 5 mmHg | Initial LVEDP (isolated rat hearts; 10 μM): 6 ± 1 mmHg | Initial LVESP (isolated rat hearts; 10 μM): 95 ± 5 mmHg | Initial dP/dtmax (isolated rat hearts; 10 μM): 2294 ± 108 mmHg/s | Initial dP/dtmin (isolated rat hearts; 10 μM): −1548 ± 92 mmHg/s

Myr-LSETKPAV (Myristoyl-LSETKPAV) [Myr + PKCε- Scram.]
Final Coronary Flow (isolated rat hearts; 10 μM): 8 ± 2 mL/min | Final Heart Rate (isolated rat hearts; 10 μM): 236 ± 11 BPM | Final LVDP (isolated rat hearts; 10 μM): 51 ± 9 mmHg | Final LVEDP (isolated rat hearts; 10 μM): 56 ± 8 mmHg | Final LVESP (isolated rat hearts; 10 μM): 107 ± 4 mmHg | Final dP/dtmax (isolated rat hearts; 10 μM): 958 ± 265 mmHg/s | Final dP/dtmin (isolated rat hearts; 10 μM): −727 ± 133 mmHg/s | Infarct Size (isolated rat hearts; [2]): 14 ± 3% | Initial Coronary Flow (isolated rat hearts; 10 μM): 19 ± 3 mL/min | Initial Heart Rate (isolated rat hearts; 10 μM): 278 ± 10 BPM | Initial LVDP (isolated rat hearts; 10 μM): 87 ± 4 mmHg | Initial LVEDP (isolated rat hearts; 10 μM): 9 ± 2 mmHg | Initial LVESP (isolated rat hearts; 10 μM): 96 ± 6 mmHg | Initial dP/dtmax (isolated rat hearts; 10 μM): 2307 ± 55 mmHg/s | Initial dP/dtmin (isolated rat hearts; 10 μM): −1571 ± 72 mmHg/s

Myr-SLNPEWNET (Myristoyl-SLNPEWNET) [Myr+PKCβII−]
reduction of PMA (100 nM) induced leukocyte superoxide release ([1]; 20 μM): 30% | Infarct Size (isolated rat hearts; [3]): 13±2%

Myr-WNPESLNTE (Myristoyl-WNPESLNTE) [Myr−PKCβII− scrambled]
effect on PMA induced leukocyte superoxide release (in words) ([1]; 20 μM): increased | Infarct Size (isolated rat hearts; [3]): 22±2%

Myr-YGRKKRRQRRRCCLSETKPAV (Myristoyl-YGRKKRRQRRRCCLSETKPAV; cysteine pairing not given here) [Myr + TAT + PKCε- Scram.]
Final Coronary Flow (isolated rat hearts; 1 nM): 7 ± 2 mL/min | Final Heart Rate (isolated rat hearts; 1 nM): 225 ± 1 BPM | Final LVDP (isolated rat hearts; 1 nM): 50 ± 11 mmHg | Final LVEDP (isolated rat hearts; 1 nM): 53 ± 4 mmHg | Final LVESP (isolated rat hearts; 1 nM): 103 ± 14 mmHg | Final dP/dtmax (isolated rat hearts; 1 nM): 993 ± 195 mmHg/s | Final dP/dtmin (isolated rat hearts; 1 nM): −760 ± 210 mmHg/s | Infarct Size (isolated rat hearts; 1 nM, I(30 min)/R(50 min), infarct tissue weight/total tissue weight): 19 ± 2% | Initial Coronary Flow (isolated rat hearts; 1 nM): 15 ± 1 mL/min | Initial Heart Rate (isolated rat hearts; 1 nM): 278 ± 10 BPM | Initial LVDP (isolated rat hearts; 1 nM): 87 ± 1 mmHg | Initial LVEDP (isolated rat hearts; 1 nM): 6 ± 0.4 mmHg | Initial LVESP (isolated rat hearts; 1 nM): 92 ± 1 mmHg | Initial dP/dtmax (isolated rat hearts; 1 nM): 2267 ± 87 mmHg/s | Initial dP/dtmin (isolated rat hearts; 1 nM): −1490 ± 82 mmHg/s | Final Coronary Flow (isolated rat hearts; 100 nM): 12 ± 4 mL/min | Final Heart Rate (isolated rat hearts; 100 nM): 295 ± 29 BPM | Final LVDP (isolated rat hearts; 100 nM): 36 ± 12 mmHg | Final LVEDP (isolated rat hearts; 100 nM): 57 ± 10 mmHg | Final LVESP (isolated rat hearts; 100 nM): 93 ± 9 mmHg | Final dP/dtmax (isolated rat hearts; 100 nM): 706 ± 223 mmHg/s | Final dP/dtmin (isolated rat hearts; 100 nM): −677 ± 222 mmHg/s | Infarct Size (isolated rat hearts; 100 nM, I(30 min)/R(50 min), infarct tissue weight/total tissue weight): 14 ± 3% | Initial Coronary Flow (isolated rat hearts; 100 nM): 21 ± 6 mL/min | Initial Heart Rate (isolated rat hearts; 100 nM): 271 ± 16 BPM | Initial LVDP (isolated rat hearts; 100 nM): 91 ± 5 mmHg | Initial LVEDP (isolated rat hearts; 100 nM): 9 ± 2 mmHg | Initial LVESP (isolated rat hearts; 100 nM): 100 ± 4 mmHg | Initial dP/dtmax (isolated rat hearts; 100 nM): 2300 ± 189 mmHg/s | Initial dP/dtmin (isolated rat hearts; 100 nM): −1545 ± 117 mmHg/s | Final Coronary Flow (isolated rat hearts; 10 μM): 3 ± 0.1 mL/min | Final Heart Rate (isolated rat hearts; 10 μM): 684 ± 167 BPM | Final LVDP (isolated rat hearts; 10 μM): 3 ± 2 mmHg | Final LVEDP (isolated rat hearts; 10 μM): 70 ± 10 mmHg | Final LVESP (isolated rat hearts; 10 μM): 72 ± 8 mmHg | Final dP/dtmax (isolated rat hearts; 10 μM): 27 ± 9 mmHg/s | Final dP/dtmin (isolated rat hearts; 10 μM): −24 ± 8 mmHg/s | Infarct Size (isolated rat hearts; [2]): 16 ± 6% | Initial Coronary Flow (isolated rat hearts; 10 μM): 18 ± 1 mL/min | Initial Heart Rate (isolated rat hearts; 10 μM): 275 ± 12 BPM | Initial LVDP (isolated rat hearts; 10 μM): 86 ± 1 mmHg | Initial LVEDP (isolated rat hearts; 10 μM): 6 ± 1 mmHg | Initial LVESP (isolated rat hearts; 10 μM): 92 ± 0.3 mmHg | Initial dP/dtmax (isolated rat hearts; 10 μM): 2309 ± 69 mmHg/s | Initial dP/dtmin (isolated rat hearts; 10 μM): −1604 ± 71 mmHg/s

Myr-YGRKKRRQRRRCCSLNPEWNET (Myristoyl-YGRKKRRQRRRCCSLNPEWNET; cysteine pairing not given here) [Myr+TAT+PKCβII−]
effect on PMA induced leukocyte superoxide release (in words) ([1]; 20 μM): virtually identical to the SOD standard | reduction of leukocyte superoxide release as compared to Myr+PKCβII− (20 μM) ([1]; 20 μM): ~65% | reduction of PMA (100 nM) induced leukocyte superoxide release ([1]; 20 μM): 80% | Infarct Size (isolated rat hearts; [3]): 5%

SLNPEWNET (Atificially synthesized) [PKCβII−]
effect on PMA induced leukocyte superoxide release (in words) ([1]; 20 μM): did not exert a significant inhibition

Superoxide dismutase [SOD, reference compound]
attenuation of leukocyte superoxide release ([1]; 10 ug/ml, positive control): ~94%

YGRKKRRQRRRCCEAVSLKPT (not fully specified; cysteine pairing not given here) [TAT + PKCε-]
reduction of infarct size compared to control I/R hearts (isolated rat hearts; 10 μM): did not reduce infarct size | Final Coronary Flow (isolated rat hearts; 10 μM): 12 ± 4 mL/min | Final Heart Rate (isolated rat hearts; 10 μM): 242 ± 18 BPM | Final LVDP (isolated rat hearts; 10 μM): 37 ± 12 mmHg | Final LVEDP (isolated rat hearts; 10 μM): 63 ± 2 mmHg | Final LVESP (isolated rat hearts; 10 μM): 100 ± 13 mmHg | Final dP/dtmax (isolated rat hearts; 10 μM): 678 ± 223 mmHg/s | Final dP/dtmin (isolated rat hearts; 10 μM): −723 ± 84 mmHg/s | Infarct Size (isolated rat hearts; [2]): 18 ± 2% | Initial Coronary Flow (isolated rat hearts; 10 μM): 20 ± 2 mL/min | Initial Heart Rate (isolated rat hearts; 10 μM): 285 ± 10 BPM | Initial LVDP (isolated rat hearts; 10 μM): 86 ± 5 mmHg | Initial LVEDP (isolated rat hearts; 10 μM): 7 ± 2 mmHg | Initial LVESP (isolated rat hearts; 10 μM): 93 ± 3 mmHg | Initial dP/dtmax (isolated rat hearts; 10 μM): 2408 ± 126 mmHg/s | Initial dP/dtmin (isolated rat hearts; 10 μM): −1735 ± 149 mmHg/s
